From patent US8445441B2, “Inhibitors of BCL-2” (Case Western Reserve University, priority 2007, dated 2013)

Key:
[1] = system: IP3R type 1 channel; assay: single IP3R channel activity in planar lipid bilayers; format: biochemical; details: 2 μM IP3, 250 nM Ca2+
Description: FIG. 5 illustrates a summary of multiple experiments (mean±SEM) measuring effects of Bcl-2 and peptides on IP3R channel open probability. n=number of individual channels examined. Symbols represent mean±SEM. *p<0.05.
The effects of peptide 2 and purified Bcl-2 on IP3R channel activity were analyzed in planar lipid bilayers under steady-state conditions. Single IP3R type 1 channel activity was visualized as a series of discrete positive current fluctuations in the presence of 2 μM IP3 and 250 nM Ca^2+ in the cis compartment (cytoplasmic side of channel). A significant reduction in single channel activity was observed after adding 0.1 μM purified Bcl-2 to the cytoplasmic face of the IP3R channel, and addition of 10 μM peptide 2 reversed Bcl-2's inhibitory effect on channel activity. Average open probabilities under various conditions were calculated from multiple repeated experiments (FIG. 5). Addition of Bcl-2 reduced IP3R open probability by 11.5-fold to 0.018.

[2] = system: Jurkat cells; assay: anti-CD3-induced Ca2+ elevation by digital imaging; format: cell-based
Description: (§1) FIGS. 6A-D illustrates peptide 2 (SEQ ID NO:3) Reverses Bcl-2's Inhibition of Anti-CD3-Induced Ca^2+Elevation. (A) Representative Ca^2+ traces (each the mean of ˜65 cells) recording anti-CD3 (arrow, time of addition)-induced Ca^2+ elevation in Bcl-2(+) WEHI7.2 cells. Peptide (60 μM) uptake was facilitated by Chariot reagent. (B) Peak anti-CD3 induced Ca^2+ elevation in Bcl-2(−) and Bcl-2(+) WEHI7.2 cells treated with peptides as in (A) [mean±SEM, five experiments for Bcl-2(−) and seven experiments for Bcl-2(+) cells, with mean 68 cells per sample per experiment]. (C) Representative Ca^2+ traces in Jurkat cells (mean 85 cells each). Treatment conditions are the same as in (A), except that a control involving addition of peptide 2 without Chariot reagent has been added. (D) Peak anti-CD3-induced Ca^2+ elevation in Jurkat cells treated with peptides as in (C) (mean±SEM, seven experiments, mean 81 cells per sample per experiment).
(§2) Next we investigated whether peptide 2 also reverses Bcl-2's inhibitory effect on Ca^2+ release through the IP3R in Bcl-2(+) and (−) WEHI7.2 clones, newly derived WEHI7.2 mixed populations exogenously expressing Bcl-2, and Jurkat cells. Optimal conditions for peptide delivery and anti-CD3 concentration were determined in preliminary experiments. Peptide delivery in the lipid bilayer is 100%, whereas the penetration of peptide 2 into cells is much less, accounting for the lesser effect in cells. Therefore, a higher concentration of peptide (60 μM) was delivered into cells using the Chariot delivery reagent. Cytoplasmic Ca^2+ concentration was continuously measured at a single-cell level by digital imaging during anti-CD3 treatment. Representative Ca^2+ traces from Bcl-2(+) WEHI7.2 cells are shown in FIG. 6A, and the average Ca^2+ elevation induced by anti-CD3 in seven experiments is summarized in FIG. 6B. Observed variations in lag phase are at least partially attributable to the fact that lymphocytes are only loosely adherent to coverslips and thus rapid buffer exchange is not possible during antibody additions. Peptide 2 enhanced anti-CD3-induced Ca^2+ elevation in Bcl-2(+) WEHI7.2 cells by 40%. […] Peptide 2 had no effect on Ca^2+ elevation when added to the cells in the absence of the Chariot reagent. […] The low Bcl-2 level in Jurkat cells and the barely detectable endogenous Bcl-2 in Bcl-2(−) WEHI7.2 cells are consistent with the higher amplitude and longer duration of the Ca^2+ response in these cells in contrast to Bcl-2(+) WEHI7.2 cells (compare FIGS. 6A and 6B to FIGS. 6C and 6D). Thus, peptide 2 modulated anti-CD3-induced Ca^2+ elevation in both Bcl-2(+) WEHI7.2 cells and Jurkat cells, consistent with the ability of peptide 2 to disrupt Bcl-2-IP3R interaction.

[3] = system: WEHI7.2 cells; assay: anti-CD3-induced Ca2+ elevation by digital imaging; format: cell-based; details: 60 μM peptide with Chariot reagent
Description: as §1, §2

[4] = system: murine embryonic fibroblasts (MEFs); assay: unidirectional 45Ca2+ flux, IP3-induced efflux; format: cell-based; details: in the presence of thapsigargin
Description: The conclusion that peptide 2 acts directly on the Bcl-2-IP3R interaction is supported not only by experiments described above (FIG. 5) in which peptide 2 reversed Bcl-2-mediated inhibition of IP3R channel opening in vitro, but also by unidirectional ^45Ca^2+ flux experiments that allow for very accurate quantification of Ca^2+ release through IP3Rs located on the ER. These experiments require firmly adherent cells, and therefore murine embryonic fibroblasts (MEFs), which have a somewhat lower level of endogenous Bcl-2 than Jurkat cells, were employed. The rate of IP3-induced ^45Ca^2+ efflux was measured in the presence of thapsigargin, which completely prevents ER Ca^2+ reuptake.

[5] = system: Jurkat cells; assay: Fas-induced Ca2+-independent apoptosis; format: cell-based
[6] = system: primary chronic lymphocytic leukemia cells; assay: cell killing by trypan blue dye exclusion, combination with ABT737; format: cell-based; details: primary CLL cells, peptide combined with ABT737, 24 hours
Description: FIG. 10 illustrates a graph comparing the cell death percentage of chronic lymphocytic leukemia cells treated with combinations of ABT-737 and a peptide comprising SEQ ID NO: 3 and controls.
FIG. 11 illustrates a graph comparing the cell death percentage of chronic lymphocytic leukemia cells treated with ABT-737, a peptide comprising SEQ ID NO: 3, combinations thereof, and controls.
To test this hypothesis, we performed the experiments summarized below. […] Additions were made to CLL cells and cell death measured 24 hours later.

**Q.** For “NVYTEIKCNSLLPLDDIVRV (listed as Homo sapiens) [peptide 2, 20 amino acid peptide, aa 1389-1408 of IP3R subdomain 3a1]”, which IP3R open probability ([1]; 10 μM peptide after 0.1 μM purified Bcl-2, Bcl-2 alone 0.018) is on record?
**A.** Its IP3R open probability is 0.16.

**Q.** And the “reversal of Bcl-2's inhibitory effect on channel activity” value ([1]; after 0.1 μM purified Bcl-2)?
**A.** The value was “reversed”.

**Q.** And the “enhancement of anti-CD3-induced Ca2+ elevation” value ([2]; Jurkat cells with endogenous Bcl-2 knocked down by siRNA)?
**A.** Its value is “did not enhance”.

**Q.** And the “enhancement of anti-CD3-induced Ca2+ elevation” value ([2]; Jurkat cells, 60 μM peptide with Chariot reagent)?
**A.** Its value is “significantly enhanced”.

**Q.** And the “effect on intracellular Ca2+ levels” value ([2]; absence of anti-CD3 stimulation (data not shown))?
**A.** The value was “did not affect”.

**Q.** And the “effect on Ca2+ elevation” value ([2]; peptide added in the absence of Chariot reagent)?
**A.** Its value is “no effect”.

**Q.** What about the “enhancement of anti-CD3-induced Ca2+ elevation” value ([3]; Bcl-2(+) WEHI7.2 cells) of the same sequence?
**A.** The value was 40%.

**Q.** What about the “effect on anti-CD3-induced Ca2+ elevation” value ([3]; Bcl-2(−) WEHI7.2 cells) of the same sequence?
**A.** The value was “did not have a significant effect”.

**Q.** And the “rate of IP3-induced 45Ca2+ efflux” value [4]?
**A.** The value was “significantly increased”.

**Q.** And the “enhancement of Fas-induced Ca2+-independent apoptosis” value [5]?
**A.** The value was “did not enhance”.

**Q.** What about the “cell death induction by ABT737” value [6] of the same sequence?
**A.** Its value is “enhances cell death induction”.
